The values that follow come from article PMC5786021, “A dynamic allosteric pathway underlies Rad50 ABC ATPase function in DNA repair” (Scientific Reports, 2018).

Experiment [1] addresses T1, Mre11^HLH-Rad50^NBD (Pyrococcus furiosus, UniProt P58301, DEL196-708).
T1 construct: Mre11 helix-loop-helix aa344-426; His and NusA-His tags removed with TEV; E. coli; monomeric without nucleotide; with DNA double-strand break repair protein Mre11
As to the kind of experiment: fluorescence polarization competition with BODIPY FL ATP. Format: binding. On the technique in general: Fluorescence polarisation rises when a labelled molecule tumbles more slowly, as on binding a larger partner.

For experiment [2], the target named is T2, Mre11_2-Rad50^NBD2 (Pyrococcus furiosus, UniProt P58301, DEL196-708).
T2 construct: about 160 kDa; E. coli; with DNA double-strand break repair protein Mre11
Put plainly: 2-aminopurine DNA exonuclease fluorescence. As to conditions: 1 mM AMP-PNP, 1 mM MnCl2, 5 mM MgCl2, 50 mM Tris pH 7.5, 60 °C; allosteric via Rad50. Format: biochemical.

Experiment [3] addresses T3, Mre11^HLH-Rad50^NBD (Pyrococcus furiosus, UniProt P58301, DEL196-708/R805E).
T3 construct: Mre11 helix-loop-helix aa344-426; His and NusA-His tags removed with TEV; E. coli; monomeric without nucleotide; with DNA double-strand break repair protein Mre11
As to the kind of experiment: fluorescence polarization competition with BODIPY FL ATP. Format: binding.

Read-outs that look alike come from different tables or passages of the source.

T1 sequence (P58301 709-882, stated change not applied, other chains not shown): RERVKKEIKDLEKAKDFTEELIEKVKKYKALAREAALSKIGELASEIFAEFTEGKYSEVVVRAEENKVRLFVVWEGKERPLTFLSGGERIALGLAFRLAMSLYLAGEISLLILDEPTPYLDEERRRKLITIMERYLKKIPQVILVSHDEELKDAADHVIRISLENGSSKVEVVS
T1 sequence (P58301 1-195, stated change not applied, other chains not shown): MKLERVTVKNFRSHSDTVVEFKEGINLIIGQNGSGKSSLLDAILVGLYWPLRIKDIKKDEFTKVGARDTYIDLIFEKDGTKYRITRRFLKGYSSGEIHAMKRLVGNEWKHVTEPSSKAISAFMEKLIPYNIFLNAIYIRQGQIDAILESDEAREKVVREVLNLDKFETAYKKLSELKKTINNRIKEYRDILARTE
T2 sequence (P58301 709-882, stated change not applied): as the sequence (P58301 709-882, stated change not applied, other chains not shown) above
T2 sequence (P58301 1-195, stated change not applied): as the sequence (P58301 1-195, stated change not applied, other chains not shown) above
T3 sequence (P58301 709-882 R805E, other chains not shown): as the sequence (P58301 709-882, stated change not applied, other chains not shown) above, with R97E counted along it
T3 sequence (P58301 1-195, stated change not applied, other chains not shown): as the sequence (P58301 1-195, stated change not applied, other chains not shown) above

With `Nc1ncnc2c1ncn2[C@@H]1O[C@H](COP(=O)(O)OP(=O)(O)O)[C@@H](O)[C@H]1O` [ADP], the Ki (in general, the equilibrium dissociation constant of an inhibitor or competing ligand from its target) in experiment [1] (read-out: KI,ADP) amounted to 6.5 µM. `Nc1ncnc2c1ncn2[C@@H]1O[C@H](COP(=O)(O)OP(=O)(O)NP(=O)(O)O)[C@@H](O)[C@H]1O` [AMP-PNP]: the “reduction in Mre11 exonuclease activity” value in experiment [2] is listed as “non-hydrolyzable ATP analog AMP-PNP resulted in a dramatic reduction in exonuclease activity”. Regarding `Nc1ncnc2c1ncn2[C@@H]1O[C@H](COP(=O)(O)OP(=O)(O)OP(=O)(O)O)[C@@H](O)[C@H]1O` [ATP], the inhibitory constant (Ki) worked out at 9.8 µM in experiment [1] and 3 µM in experiment [3].
